Source: patent US11298367B2, “Prodrugs of substituted triazole derivatives and uses thereof” (Bayer Aktiengesellschaft, priority 2017, dated 2022)
≈ marks a conversion by molar mass, not a printed value. Where two headings read alike, the source gives them in different places.

Assays:
human V1a receptor [1] = target: T1, human V1a receptor (Homo sapiens, UniProt P37288); assay: Cellular in vitro assay for verification of prodrug conversion into drug (with/without alkaline phosphatase); type: cell-based; settings: human V1a CHO cells
T1 construct: expressed in transfected cells; host or cells: CHO K1 (Chinese hamster ovary), also stably transfected with a modified aequorin
Experimental: B-4. Cellular In Vitro Assay for Verification of Prodrug Conversion into Drug
To verify the conversion of prodrugs into the respective drugs, the prodrugs are incubated with and without alkaline phosphatase. Cleavage of the phosphate moiety by alkaline phosphatase converts the prodrug into the underlying respective drug [Coleman J. E., Annu. Rev. Biophys. Biomol. Struct. 1992, 21, 441-483]. As prodrug and underlying respective drug show different IC50 values, the value of the prodrug after alkaline phosphatase treatment resembles the IC50 of the respective drug. The determination of IC50 values of compounds of the invention at the human V1a receptor is carried out using a recombinant cell line. The cell line originally derives from a hamster's ovary epithelial cell (Chinese Hamster Ovary, CHO K1, ATCC: American Type Culture Collection, Manassas, Va. 20108, USA). The test cell line constitutively expresses the human V1a receptor. Cells are also stably transfected with a modified form of the calcium-sensitive photoprotein aequorin which, after reconstitution with the cofactor coelenterazine, emits light upon increase in free calcium concentration [Rizzuto R, Simpson A W, Brini M, Pozzan T, Nature 358, 325-327 (1992); Illarionov B A, Bondar V S, Illarionova V A, Vysotski E S, Gene 153 (2), 273-274 (1995)]. The resulting vasopressin receptor cell reacts to stimulation of the recombinantly expressed V1a receptor by intracellular release of calcium ions, which can be quantified by the resulting luminescence of photoprotein. The bioluminescence of the cell line is detected using a suitable luminometer [Milligan G, Marshall F, Rees S, Trends in Pharmacological Sciences 17, 235-237 (1996)].
On the day before the assay, the cells are seeded in culture medium (DMEM/F12, 2% FCS, 2 mM glutamine, 10 mM HEPES, 5 μg/ml coelenterazine) in 384-well microtiter plates and kept in a cell incubator (96% humidity, 5% v/v CO2, 37C). On the day of the assay, 100 μl of test compounds at a concentration of 100 μM are incubated for 15 minutes with 500 units alkaline phosphatase at 37° C. in tyrode buffer (20 mM HEPES, 130 mM NaCl, 5 mM KCl, 5 mM NaHCO3, 2 mM MgCl2, pH 7,4). After incubation compounds are immediately diluted and placed for 10 minutes at 37° C. on the before seeded V1a cells. For detection of antagonistic activity of the compounds [Arg^8]-vasopressin at EC50 concentration is added and the resulting light signal is measured immediately in a luminometer.

human V1a receptor [2] = target: T1, human V1a receptor; assay: Cellular in vitro assay for vasopressin receptor activity (V1a, aequorin luminescence); type: cell-based; settings: selectivity ratio hV2/hV1a
Experimental: B-1. Cellular In Vitro Assay for Determining Vasopressin Receptor Activity
The identification of agonists and antagonists of the V1a and V2 vasopressin receptors from humans, rats and dogs as well as the quantification of the activity of the compounds of the invention is carried out using recombinant cell lines. These cell lines originally derive from a hamster's ovary epithelial cell (Chinese Hamster Ovary, CHO K1, ATCC: American Type Culture Collection, Manassas, Va. 20108, USA). The test cell lines constitutively express the human, rat or dog V1a or V2 receptors. In case of the Gaq-coupled V1a receptors, cells are also stably transfected with a modified form of the calcium-sensitive photoproteins aequorin (human and rat V1a) or obelin (dog V1a), which, after reconstitution with the cofactor coelenterazine, emit light when there are increases in free calcium concentrations [Rizzuto R, Simpson A W, Brini M, Pozzan T, Nature 358, 325-327 (1992); Illarionov B A, Bondar V S, Illarionova V A, Vysotski E S, Gene 153 (2), 273-274 (1995)]. The resulting vasopressin receptor cells react to stimulation of the recombinantly expressed Via receptors by intracellular release of calcium ions, which can be quantified by the resulting photoprotein luminescence. The Gs-coupled V2 receptors are stably transfected into cell lines expressing the gene for firefly luciferase under control of a CRE-responsible promoter. Activation of V2 receptors induces the activation of the CRE-responsive promoter via cAMP increase, thereby inducing the expression of firefly luciferase. The light emitted by photoproteins of V1a cell lines as well as the light emitted by firefly luciferase of V2 cell lines corresponds to the activation or inhibition of the respective vasopressin receptor. The bioluminescence of the cell lines is detected using a suitable luminometer [Milligan G, Marshall F, Rees S, Trends in Pharmacological Sciences 17, 235-237 (1996)].
Vasopressin V1a Receptor Cell Lines:
On the day before the assay, the cells are plated out in culture medium (DMEM/F12, 2% FCS, 2 mM glutamine, 10 mM HEPES, 5 μg/ml coelenterazine) in 384-well microtiter plates and kept in a cell incubator (96% humidity, 5% v/v CO2, 37C). On the day of the assay, test compounds in various concentrations are placed for 10 minutes in the wells of the microtiter plate before the agonist [Arg^8]-vasopressin at EC50 concentration is added. The resulting light signal is measured immediately in a luminometer.
Table 1A below lists individual IC50 values for the compounds of the invention (including racemic mixtures as well as separated enantiomers) that were obtained from cell lines transfected with the human V1a or V2 receptor. This means these IC50 values are the values for the prodrug and not for the underlying respective drug as the prodrug is mainly stable under the assay conditions.

Solubility = type: physicochemical; settings: 24 h room temperature, max. 500 μg/ml; for solubility at 24 h: thermodynamic from solid
Experimental: For each substance 0.5-0.6 mg are weighed exactly. In each case, sufficient medium is added to the sample in such a way that a concentration of c=500 μg/ml is obtained. This sample solution is shaken for 24 h at room temperature and 1400 rpm.
A further sample weight of 0.5-0.6 mg is required for the DMSO calibration solution. This sample is filled with DMSO to a concentration of c=600 μg/ml. Two calibration solutions are prepared from this stock solution. In a 2 ml HPLC vial, 1000 μl of DMSO are initially introduced and 34.4 μl of the stock solution are pipetted (c=20 µg/ml). […] of this solution (c=20 μg/ml) are placed in a further 2 ml HPLC vial containing 500 μl of DMSO (c=2.5 μg/ml).
After shaking the test solutions, 230 μl of the supernatant are transferred into a centrifuge tube and centrifuged at 42 000 rpm (223 000 g) for 30 min. 180 μl of the supernatant are then taken and each diluted with DMSO (1:5 sample 1; 1:100 sample 2), and transferred to HPLC vials. The two calibration solutions and the dilute sample solutions are analyzed by HPLC. Quantification is performed over the corresponding peak areas.
Distilled water; trifluoroacetic acid (Merck; 1.08262.0100); acetonitrile (HPLC grade); DMSO (Merck; 8.02912.2500).
Fluka buffer, Order No. 33643 (11.76 g citric acid, 2.57 g sodium chloride and 2.72 g sodium hydroxide).
Fluka buffer, Order No. 33646 (3.52 g potassium dihydrogenphosphate, 7.26 g sodium hydrogen phosphate).
Solution of 6.18 g sodium chloride and 3.96 g sodium dihydrogen phosphate in 1 L distilled water, adjust with 1M aqueous sodium hydroxide solution to pH 7.4.
0.6057 g TRIS was dissolved in 95 ml water, adjust to pH 8.5 with aqueous hydrochloric acid, fill with water until 100 ml volume is reached.

[3] = pre-incubation 15 min with 500 units alkaline phosphatase at 37° C., read-out: IC50 with AP
[4] = without alkaline phosphatase, read-out: IC50 without AP
[5] = Tris buffer pH 8.5, pH 8.5, aqueous buffer, pH = 8.5 Tris buffer

T1 sequence (P37288 whole entry): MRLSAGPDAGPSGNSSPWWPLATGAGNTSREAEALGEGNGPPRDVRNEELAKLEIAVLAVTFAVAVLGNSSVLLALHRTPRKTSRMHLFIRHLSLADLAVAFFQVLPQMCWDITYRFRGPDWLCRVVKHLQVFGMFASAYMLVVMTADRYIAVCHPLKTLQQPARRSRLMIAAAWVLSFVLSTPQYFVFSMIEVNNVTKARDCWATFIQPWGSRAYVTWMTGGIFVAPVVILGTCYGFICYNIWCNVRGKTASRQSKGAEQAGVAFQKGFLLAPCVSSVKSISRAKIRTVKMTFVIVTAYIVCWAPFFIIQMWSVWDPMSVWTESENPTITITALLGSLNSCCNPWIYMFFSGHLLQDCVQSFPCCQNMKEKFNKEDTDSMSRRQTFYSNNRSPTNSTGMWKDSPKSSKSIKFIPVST

NC(=O)c1nc(Cn2nc(-c3ccc(Cl)cc3)n(C[C@H](O)C(F)(F)F)c2=O)nn1-c1ccccc1C(F)(F)F [Example 6A, 3-({3-(4-Chlorophenyl)-5-oxo-4-[(2S)-3,3,3-trifluoro-2-hydroxypropyl]-4,5-dihydro-1H-1,2,4-triazol-1-yl}methyl)-1-[2-(trifluoromethyl)phenyl]-1H-1,2,4-triazole-5-carboxamide]
IC50 (human V1a receptor [1]; [3]): 1.35 nM | IC50 (human V1a receptor [1]; [4]): 1.35 nM | ratio IC50 hV2/hV1a (human V1a receptor [2]): 41.4 | solubility at 24 h (Solubility; [5]): 4.3 µg/mL (≈ 7.47 µM) | Solubility (Solubility; pH = 4 citrate buffer): not detectable | Solubility (Solubility; pH = 7.0 buffer): not detectable

NC(=O)c1nc(Cn2nc(-c3ccc(Cl)cc3)n(C[C@H](O)C(F)(F)F)c2=O)nn1-c1ncccc1Cl [Example 8A, 3-({3-(4-Chlorophenyl)-5-oxo-4-[(2S)-3,3,3-trifluoro-2-hydroxypropyl]-4,5-dihydro-1H-1,2,4-triazol-1-yl}methyl)-1-(3-chloropyridin-2-yl)-1H-1,2,4-triazole-5-carboxamide]
IC50 (human V1a receptor [1]; [3]): 1.1 nM | IC50 (human V1a receptor [1]; [4]): 1.7 nM | ratio IC50 hV2/hV1a (human V1a receptor [2]): 38.2 | solubility at 24 h (Solubility; [5]): 4 µg/mL (≈ 7.36 µM) | solubility at 24 h (Solubility; citrate buffer pH 4, pH 4, aqueous buffer, pH = 4 citrate buffer): 5.9 µg/mL (≈ 10.9 µM) | solubility at 24 h (Solubility; phosphate buffer pH 7, pH 7, aqueous buffer, pH = 7.0 buffer): 2.8 µg/mL (≈ 5.15 µM)
